Where “and” joins values, the source holds several entries; their conditions need not be identical. Equal values may be shown once.
How the values were obtained:
[1] = test system: DUSP6 mRNA in HPAC xenograft tumors; test: In vivo PD by DUSP6 qPCR and PK/PD relationship; design: species or system mouse; conditions: for % inhibition of DUSP6 vs control: individual animals
Description: (§1) Tumor-bearing animals were randomized and assigned into groups (n = 1–10/group). The vehicle at 10 mL/kg or RMC-6236 at indicated doses was administered via oral gavage daily, and animals were treated for 28 days, or up to 90 days if PFS was being assessed. […] For single-dose PKPD study, mice were randomized and assigned into groups (n = 3/dose/time point). A single dose of RMC-6236 was administered orally at either 3, 10, or 25 mg/kg. Blood and tissues, including the tumor, brain, colon, ear skin, and muscle, were harvested at indicated time points. Whole blood was collected in K2EDTA Microtainer tubes, incubated for 5 minutes, and snap-frozen in liquid nitrogen. The tissue was either fixed in 10% formalin or snap-frozen in liquid nitrogen for further analysis.
(§2) RNA was extracted from at least 20 mg of tissue using an RNeasy Mini Kit (Qiagen, 74104) and a High-Throughput Tissue grinder following the manufacturer's protocol. Reverse transcription was carried out using High-Capacity cDNA Reverse Transcription Kit (ABI, 4368814) according to the manufacturer's protocol. The cDNA product was used for qPCR analysis using TaqMan Gene-Expression Master Mix (ABI, 4369016). TaqMan primer probes specific to DUSP6 (human—Hs00737962_m1, murine—Mm00518185_m1, FAM-MGB) and 18S (RNA18S1; human—Hs99999901_s1, murine—Mm03928990_g1, FAM-MGB, used as an internal control gene) were used to detect the levels from each sample in duplicates using a 10 µL final reaction volume in a 384-well clear optical reaction plate. For qPCR, Ct values of DUSP6 and 18S were obtained for analysis. DUSP6 Ct value was normalized to 18S, and then the mean relative mRNA expression levels of each group were normalized to the vehicle control group. Values were plotted as relative change in mRNA expression compared with vehicle. Means ± SEM were shown.
(§3) Concentrations of RMC-6236 in tumor or normal tissues and percentage of DUSP6 inhibition as compared with the vehicle control from individual animals were collected and analyzed post a single dose of RMC-6236 ranging from 0.3 to 100 mg/kg (Supplementary Table S6). A 3-parameter sigmoidal exposure–response model was fitted to the data in GraphPad Prism to derive EC50 and EC90 values.

[2] = test system: DUSP6 mRNA in KP-4 xenograft tumors; test: In vivo PD by DUSP6 qPCR and PK/PD relationship; design: species or system mouse
Description: as §1, §2, §3

[3] = test system: Ki67 in Capan-2 xenograft tumors; test: IHC whole-slide quantification; format: in vivo, mouse; conditions: control 49.7
Description: All tissues were fixed for up to 24 hours using 10% neutral buffered formalin and then moved to 70% ethanol for long-term storage. FFPE sections (4 µm) were stained on the Biocare intelliPATH automated staining platform using the manufacturer’s recommended settings.
Anti–Ki-67 rabbit monoclonal antibody (Biocare, cat no. CRM325, clone: SP6) was used at 1:50 with citrate-based pH 6.2 heat-induced epitope retrieval; an isotype control (rabbit IgG) was used under the same conditions.
All tissue sections were incubated with Biocare Peroxidase Blocker (Biocare, cat no. PX968) and Background Punisher (Biocare, cat no. BP974M) to block nonspecific background. MACH4 HRP-polymer Detection System (Biocare, cat no. MRH534) was used to detect rabbit primary antibodies.
DAB-stained slides were scanned and digitized with a Huron TissueScope LE120 whole-slide scanner at 200× magnification.
The EpCAM staining was used to identify epithelial cells. First, the area to be analyzed was delineated, excluding necrotic regions. The random forest tumor classifier from the HALO Image Analysis package was used to identify the tumor compartment. Three classes were created: glass, tumor (EpCAM-positive), and stroma. The tumor class mark was then copied onto the serial sections stained with various markers to perform the image analysis only on the tumor compartment.
Quantification of Ki-67 was performed with the HALO Image Analysis software from Indica Labs using the CytoNuclear module. The analysis was performed only on the tumor compartment copied from the EpCAM slide. The software was tuned to detect all the nuclei based on the hematoxylin stain (blue color) and to detect positive DAB staining (brown color). Total positivity was plotted and subjected to statistical analysis using GraphPad Prism (Dunnett multiple comparisons test).

CCn1c(-c2cc(N3CCN(C)CC3)cnc2[C@H](C)OC)c2c3cc(ccc31)-c1csc(n1)C[C@H](NC(=O)[C@H]1C[C@@H]1C)C(=O)N1CCC[C@H](N1)C(=O)OCC(C)(C)C2 [RMC-6236]
% inhibition of DUSP6 vs control ([1]; HPAC #3, 50 mg/kg, 4h): 99.6% and 99.3% | % inhibition of DUSP6 vs control ([1]; HPAC #3, 50 mg/kg, 8h): 99.8% and 99.7% | % inhibition of DUSP6 vs control ([1]; HPAC #3, 50 mg/kg, 24h): 99.9% and 99.8% | % inhibition of DUSP6 vs control ([1]; HPAC #3, 50 mg/kg, 48h): 99.3% and 98% and 97.1% | % inhibition of DUSP6 vs control ([1]; HPAC #4, 3 mg/kg, 4h): 8.1% and 58% and 27.9% | % inhibition of DUSP6 vs control ([1]; HPAC #4, 3 mg/kg, 8h): 54.7% and 65.2% and 84.3% | % inhibition of DUSP6 vs control ([1]; HPAC #4, 3 mg/kg, 24h): 0% and 40.8% and 37.2% | % inhibition of DUSP6 vs control ([1]; HPAC #4, 3 mg/kg, 48h): 0% and 22.7% and 33.9% | % inhibition of DUSP6 vs control ([1]; HPAC #4, 10 mg/kg, 4h): 93.6% and 96.1% and 97.9% | % inhibition of DUSP6 vs control ([1]; HPAC #4, 10 mg/kg, 8h): 98.9% and 99.6% and 97.1% | % inhibition of DUSP6 vs control ([1]; HPAC #4, 10 mg/kg, 24h): 80.3% and 56.7% and 91.1% | % inhibition of DUSP6 vs control ([1]; HPAC #4, 10 mg/kg, 48h): 8.1% and 47% and 59.6% | % inhibition of DUSP6 vs control ([1]; HPAC #4, 25 mg/kg, 4h): 99.6% and 97.7% and 93.3% | % inhibition of DUSP6 vs control ([1]; HPAC #4, 25 mg/kg, 8h): 99.9% and 99.4% and 99.8% | % inhibition of DUSP6 vs control ([1]; HPAC #4, 25 mg/kg, 24h): 99.3% and 99.2% and 99.6% | % inhibition of DUSP6 vs control ([1]; HPAC #4, 25 mg/kg, 48h): 97.6% and 96.7% and 87.9% | % inhibition of DUSP6 vs control ([1]; HPAC #11, 0.3 mg/kg, 4h): 0% and 41.7% | % inhibition of DUSP6 vs control ([1]; HPAC #11, 0.3 mg/kg, 8h): 9.1% and 10.7% and 76.7% | % inhibition of DUSP6 vs control ([1]; HPAC #11, 0.3 mg/kg, 24h): 0% | % inhibition of DUSP6 vs control ([1]; HPAC #11, 0.3 mg/kg, 48h): 0% | % inhibition of DUSP6 vs control ([1]; HPAC #11, 1 mg/kg, 4h): 48.3% and 77.5% and 97.1% | % inhibition of DUSP6 vs control ([1]; HPAC #11, 1 mg/kg, 8h): 86.3% and 83.8% and 49.4% | % inhibition of DUSP6 vs control ([1]; HPAC #11, 1 mg/kg, 24h): 4.9% and 0% and 23.3% | % inhibition of DUSP6 vs control ([1]; HPAC #11, 1 mg/kg, 48h): 24.6% and 0% and 42.3% | EC50 ([1]; Mus musculus, HPAC, read-out: EC50, inhibition of DUSP6 expression vs RMC-6236 concentration (PK/PD relationship)): 135 nM | EC90 ([1]; Mus musculus, HPAC, read-out: EC90, inhibition of DUSP6 expression vs RMC-6236 concentration (PK/PD relationship)): 925 nM | DUSP6 mRNA(% normalized to control) ([2]; KP-4 (25 mg/kg x 31d), 8h): 3.6% | DUSP6 mRNA(% normalized to control) ([2]; KP-4 (25 mg/kg x 31d), 24h): 36.2% | DUSP6 mRNA(% normalized to control) ([2]; KP-4 (25 mg/kg), 2h): 115.7% | DUSP6 mRNA(% normalized to control) ([2]; KP-4 (25 mg/kg), 4h): 18.9% | DUSP6 mRNA(% normalized to control) ([2]; KP-4 (25 mg/kg), 8h): 10.7% | DUSP6 mRNA(% normalized to control) ([2]; KP-4 (25 mg/kg), 12h): 4.3% | DUSP6 mRNA(% normalized to control) ([2]; KP-4 (25 mg/kg), 24h): 37.1% | DUSP6 mRNA(% normalized to control) ([2]; KP-4 (25 mg/kg), 48h): 48.3% | % inhibition of DUSP6 vs control ([2]; KP-4, study KP-4 #3, 25 mg/kg, 4h): 83.13% and 97.7% and 98.74% | % inhibition of DUSP6 vs control ([2]; KP-4, study KP-4 #3, 25 mg/kg, 8h): 99.27% and 98.8% and 98.46% | % inhibition of DUSP6 vs control ([2]; KP-4, study KP-4 #3, 25 mg/kg, 24h): 84.47% and 92.71% and 89.79% | % inhibition of DUSP6 vs control ([2]; KP-4, study KP-4 #3, 50 mg/kg, 4h): 99.82% and 89.5% and 98.09% | % inhibition of DUSP6 vs control ([2]; KP-4, study KP-4 #3, 50 mg/kg, 8h): 99.77% and 99.81% and 99.62% | % inhibition of DUSP6 vs control ([2]; KP-4, study KP-4 #3, 50 mg/kg, 24h): 96.99% and 96.44% and 98.05% | % inhibition of DUSP6 vs control ([2]; KP-4, study KP-4 #3, 50 mg/kg, 48h): 83.3% and 81.21% and 85.91% | % inhibition of DUSP6 vs control ([2]; KP-4, study KP-4 #4, 25 mg/kg, 8h): 95.62% and 96.57% and 90.57% | % inhibition of DUSP6 vs control ([2]; KP-4, study KP-4 #4, 25 mg/kg, 24h): 87.48% and 87.9% and 94.68% | % inhibition of DUSP6 vs control ([2]; KP-4, study KP-4 #4, 40 mg/kg, 8h): 96.06% and 97.31% and 95.84% | % inhibition of DUSP6 vs control ([2]; KP-4, study KP-4 #4, 40 mg/kg, 24h): 75.38% and 93.78% and 96.21% | % inhibition of DUSP6 vs control ([2]; KP-4, study KP-4 #4, 100 mg/kg, 8h): 99.67% and 97.58% and 99.05% | % inhibition of DUSP6 vs control ([2]; KP-4, study KP-4 #4, 100 mg/kg, 24h): 98.22% and 98.9% and 97.78% | % inhibition of DUSP6 vs control ([2]; KP-4, study KP-4 #4, 100 mg/kg, 48h): 68.4% and 89.83% and 80.41% | % inhibition of DUSP6 vs control ([2]; KP-4, study KP-4 #5, 25 mg/kg, 4h): 96.1077% and 90.078% and 87.6997% | % inhibition of DUSP6 vs control ([2]; KP-4, study KP-4 #5, 25 mg/kg, 8h): 91.9687% and 92.3226% and 98.2581% | % inhibition of DUSP6 vs control ([2]; KP-4, study KP-4 #5, 25 mg/kg, 24h): 65.5692% and 78.5839% and 66.1607% | % inhibition of DUSP6 vs control ([2]; KP-4, study KP-4 #6, 3 mg/kg, 8h): 59.13% and 61.2% and 53.53% | % inhibition of DUSP6 vs control ([2]; KP-4, study KP-4 #6, 3 mg/kg, 24h): 48.26% and 46.44% and 45.31% | % inhibition of DUSP6 vs control ([2]; KP-4, study KP-4 #6, 3 mg/kg, 48h): 0% and 3.79% | % inhibition of DUSP6 vs control ([2]; KP-4, study KP-4 #6, 10 mg/kg, 4h): 74.13% and 85.85% and 59.13% | % inhibition of DUSP6 vs control ([2]; KP-4, study KP-4 #6, 10 mg/kg, 8h): 70.29% and 97.17% and 70.69% | % inhibition of DUSP6 vs control ([2]; KP-4, study KP-4 #6, 10 mg/kg, 48h): 8.03% and 13.59% and 9.61% | % inhibition of DUSP6 vs control ([2]; KP-4, study KP-4 #6, 25 mg/kg, 4h): 93.33% and 56.04% and 93.99% | % inhibition of DUSP6 vs control ([2]; KP-4, study KP-4 #6, 25 mg/kg, 8h): 85.45% and 84.94% and 97.45% | % inhibition of DUSP6 vs control ([2]; KP-4, study KP-4 #6, 25 mg/kg, 12h): 93.75% and 94.27% and 98.93% | % inhibition of DUSP6 vs control ([2]; KP-4, study KP-4 #6, 25 mg/kg, 48h): 63.92% and 39.53% | EC50 ([2]; Mus musculus, KP-4 xenograft tumors, read-out: EC50, inhibition of DUSP6 expression vs RMC-6236 concentration (PK/PD relationship)): 454 nM | EC90 ([2]; Mus musculus, KP-4 xenograft tumors, read-out: EC90, inhibition of DUSP6 expression vs RMC-6236 concentration (PK/PD relationship)): 2890 nM | Ki67 (% positive cells) ([3]; Capan-2 (25 mg/kg x 7d), 8h): 9.6% | Ki67 (% positive cells) ([3]; Capan-2 (25 mg/kg x 7d), 24h): 13.0% | Ki67 (% positive cells) ([3]; Capan-2 (25 mg/kg x 7d), 48hr): 19.2% | Ki67 (% positive cells) ([3]; Capan-2 (25 mg/kg), 8h): 44.9% | Ki67 (% positive cells) ([3]; Capan-2 (25 mg/kg), 24h): 47.4% | Ki67 (% positive cells) ([3]; Capan-2 (25 mg/kg), 48hr): 26.3%
